Read-outs that look alike come from different tables or passages of the source.
Tests used:
[1] = Compound toxicity, ATPLite total ATP levels; format: cell-based; details: human, HepAD38 cells, three days after compound addition, concentration reducing total ATP levels by 50% relative to no drug controls
Experimental: Methods: HepAD38 cells are maintained as previously reported (Ladner et al, Antimicrob. Agents Chemother. 1997, […], 1715). Briefly, cells are passaged upon attaining confluency in DMEM/F12 media in the presence of 10% FBS, Penn/Strep, 250 μg/mL G418, and 1 ug/ml tetracycline. Novel compounds are screened by first washing cells three times with PBS to remove tetracycline, and plating in 96 well plates at 35,000 cells/well. Compounds dissolved in DMSO are then diluted 1:200 into wells containing cells. Five days after compound addition, material is harvested for analysis. For an extended 8 day analysis, cells are plated and treated as described above, but media and compound are refreshed on d2 and d5 post initial treatment.
Compound toxicity is evaluated by seeding cells at 15,000 cells/well and treating with compound as described above.

HBV = assay: HepAD38 antiviral assay: reduction of viral product accumulation (virion DNA by qPCR, HBsAg or HBeAg by ELISA); format: cell-based, hepatitis B virus; details: HepAD38 cells, five days after compound addition, concentration reducing viral product accumulation by 50% relative to no drug controls, read-out: HepAD38 EC50
Summary of the method: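 EC50 values represent 50% reduction of viral product accumulation in lysates or supernatants relative to untreated controls, with virion DNA read by qPCR and HBsAg/HBeAg by ELISA. Measurements followed 5 days of treatment, or 8 days with compound renewed on d2 and d5. Cells were tetracycline-depleted HepAD38 at 35,000/well, dosed with a 1:200 dilution of DMSO stocks.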

[2] = Hepatitis B virus, HePAD38, 120 h

Structure (SMILES) | EC50 (HBV; [2]) [nM] | further results
O=C1NC[C@@]2(CC3CC[C@@H](C2)[C@H]3S(=O)(=O)c2cc(C(=O)Nc3cc(F)c(F)c(F)c3)ccc2Cl)O1 [Example 306] | < 100 | CC50 at 3 days ([1]; numeric bounds): > 12500 nM
O=C(Nc1cc(F)c(F)c(F)c1)c1ccc(Cl)c(S(=O)(=O)[C@H]2C3CC[C@H]2C[C@](O)(Cn2cccn2)C3)c1 [Example 313] | < 100 | CC50 at 3 days ([1]; numeric bounds): > 6250 nM
CS(=O)(=O)OC[C@@H]1CC2CC[C@@H](C1)[C@H]2S(=O)(=O)c1cc(C(=O)Nc2cc(F)c(F)c(F)c2)ccc1Cl [Example 293] | < 100 | CC50 at 3 days ([1]; numeric bounds): > 6250 nM
O=C(Nc1cc(F)c(F)c(F)c1)c1ccc(Cl)c(S(=O)(=O)[C@H]2CC3CCC(C2)[C@]3(O)c2ncc[nH]2)c1 [Example 302] | < 100 | CC50 at 3 days ([1]; class symbols): 10000 to 25000 nM
O=C(Nc1cc(F)c(F)c(F)c1)c1ccc(Cl)c(S(=O)(=O)Cc2ccccn2)c1 [Example 48] | > 400 | CC50 at 3 days ([1]; class symbols): > 25000 nM
NC(=O)OC[C@@H]1CC2CC[C@@H](C1)[C@H]2S(=O)(=O)c1cc(C(=O)Nc2cc(F)c(F)c(F)c2)ccc1Cl [Example 272] | < 100 | CC50 at 3 days ([1]; numeric bounds): > 12500 nM
O=C(Nc1cc(F)c(F)c(F)c1)c1ccc(Cl)c(S(=O)(=O)Cc2cccnc2)c1 [Example 45] | 100 to 400 | CC50 at 3 days ([1]; class symbols): > 25000 nM
CC1=NO[C@@]2(C1)CC1CC[C@@H](C2)[C@H]1S(=O)(=O)c1cc(C(=O)Nc2cc(F)c(F)c(F)c2)ccc1Cl [Example 188] | < 100 | CC50 at 3 days ([1]; numeric bounds): > 12500 nM
O=C(Nc1cc(F)c(F)c(F)c1)c1ccc(Cl)c(S(=O)(=O)[C@H]2CC3CCC(C2)[C@]3(O)c2nccs2)c1 [Example 322] | < 100 | CC50 at 3 days ([1]; class symbols): 10000 to 25000 nM
O=C(Nc1cc(F)c(F)c(F)c1)c1ccc(Cl)c(S(=O)(=O)[C@H]2C3CC[C@H]2C[C@](O)(COCCO)C3)c1 [Example 319] | < 100 | CC50 at 3 days ([1]; class symbols): > 25000 nM
CC(C)(C)OC(=O)NC1CC2CC[C@@H](C1)[C@H]2S(=O)(=O)c1cc(C(=O)Nc2cc(F)c(F)c(F)c2)ccc1Cl (stereo partly drawn) [Example 297] | < 100 | CC50 at 3 days ([1]; numeric bounds): > 6250 nM
O=C(Nc1cc(F)c(F)c(F)c1)c1ccc(Cl)c(S(=O)(=O)[C@H]2C3CC[C@H]2C[C@@](O)(CNS(=O)(=O)C2CC2)C3)c1 [Example 279] | 100 to 400 | CC50 at 3 days ([1]; class symbols): > 25000 nM
O=C(Nc1cc(F)c(F)c(F)c1)c1ccc(Cl)c(S(=O)(=O)[C@H]2CC3CCC(C2)[C@]3(O)c2ccncc2)c1 [Example 332] | < 100 | CC50 at 3 days ([1]; class symbols): 10000 to 25000 nM
C[C@]1(S(=O)(=O)c2cc(C(=O)Nc3cc(F)c(F)c(F)c3)ccc2Cl)CC[C@@H](O)CC1 [Example 16] | 100 to 400 | CC50 at 3 days ([1]; class symbols): > 25000 nM
COC(=O)N[C@@H](C(=O)NC1CC2CC[C@@H](C1)[C@H]2S(=O)(=O)c1cc(C(=O)Nc2cc(F)c(F)c(F)c2)ccc1Cl)C(C)C (stereo partly drawn) [Example 300] | < 100 | CC50 at 3 days ([1]; numeric bounds): > 6250 nM
O=C(Nc1cc(F)c(F)c(F)c1)c1ccc(Cl)c(S(=O)(=O)[C@H]2CC3CCC(C2)[C@]3(O)Cc2nnn[nH]2)c1 [Example 276] | > 400 | CC50 at 3 days ([1]; class symbols): > 25000 nM
CC(c1ccncc1)S(=O)(=O)c1cc(C(=O)Nc2cc(F)c(F)c(F)c2)ccc1Cl (stereo not drawn) [Example 80] | < 100 | CC50 at 3 days ([1]; class symbols): 10000 to 25000 nM
CS(=O)(=O)NC1CC2CC[C@@H](C1)[C@H]2S(=O)(=O)c1cc(C(=O)Nc2cc(F)c(F)c(F)c2)ccc1Cl (stereo partly drawn) [Example 299] | < 100 | CC50 at 3 days ([1]; class symbols): > 25000 nM
O=C(Nc1cc(F)c(F)c(F)c1)c1ccc(Cl)c(S(=O)(=O)C2CCNCC2)c1 [Example 74] | > 400 | 
O=C(Nc1cc(F)c(F)c(F)c1)c1ccc(Cl)c(S(=O)(=O)[C@H]2C3CC[C@H]2C[C@](O)(/C=N/OCc2ccccc2)C3)c1 [Example 205] | < 100 | 
O=C(Nc1cc(F)c(F)c(F)c1)c1ccc(Cl)c(S(=O)(=O)C[C@@H]2C3CC[C@H]2C[C@](O)(CO)C3)c1 [Example 178] | < 100 | 
O=C1CC2CC[C@@H](C1)[C@@H]2CS(=O)(=O)c1cc(C(=O)Nc2cc(F)c(F)c(F)c2)ccc1Cl [Example 179] | < 100 | 
O=C(Nc1cc(F)c(F)c(F)c1)c1ccc(Cl)c(SCc2ccccn2)c1 [Example 32] | > 400 | 
CC(=O)NC[C@]1(O)C2CCC1C[C@@H](S(=O)(=O)c1cc(C(=O)Nc3cc(F)c(F)c(F)c3)ccc1Cl)C2 [Example 345] | < 100 | 

Structure (SMILES) | EC50 (HBV; [2]) [nM] | further results
O=C1CCCC(S(=O)(=O)c2cc(C(=O)Nc3cc(F)c(F)c(F)c3)ccc2Cl)C1 (stereo not drawn) [Example 29] | > 400 | 
O=C(Nc1cc(F)c(F)c(F)c1)c1ccc(Cl)c(S(=O)(=O)[C@H]2CC3CCC(C2)[C@@H]3N2CCOCC2)c1 [Example 359] | < 100 | 
O=C(Nc1cc(F)c(F)c(F)c1)c1ccc(Cl)c(S(=O)(=O)[C@H]2C3CC[C@H]2CC(O)C(O)C3)c1 (stereo partly drawn) [Example 120] | < 100 | 
O=C(Nc1cc(F)c(F)c(F)c1)c1ccc(Cl)c(S(=O)(=O)[C@H]2C3CC[C@H]2C(O)[C@](O)(CO)C3)c1 (stereo partly drawn) [Example 156] | < 100 | 
CCCS(=O)(=O)c1cc(C(=O)Nc2cc(F)c(F)c(F)c2)ccc1Cl [Example 15] | 100 to 400 | 
O=C(Nc1cc(F)c(F)c(F)c1)c1ccc(Cl)c(SC2CCOCC2)c1 [Example 67] | > 400 | 
CC(C)[C@H](N)C(=O)OC[C@]1(O)CC2CC[C@@H](C1)[C@H]2S(=O)(=O)c1cc(C(=O)Nc2cc(F)c(F)c(F)c2)ccc1Cl [Example 254] | < 100 | 
CCOC(=O)/C=C1/CC2CC[C@@H](C1)[C@H]2S(=O)(=O)c1cc(C(=O)Nc2cc(F)c(F)c(F)c2)ccc1Cl [Example 221] | 100 to 400 | 
O=C(Nc1cc(F)c(F)c(F)c1)c1ccc(Cl)c(S(=O)(=O)C2CCC3(CC2)OCCO3)c1 [Example 1] | 100 to 400 | 
CC(=O)OC[C@]1(O)CC2CC[C@@H](C1)[C@H]2S(=O)(=O)c1cc(C(=O)Nc2cc(F)c(F)c(F)c2)ccc1Cl [Example 132] | < 100 | 
O=C(Nc1cc(F)c(F)c(F)c1)c1ccc(Cl)c(S(=O)(=O)[C@H]2CC3CCC(C2)[C@]3(O)CO)c1 [Example 208] |  | EC50 (HBV): > 400 nM
O=C(Nc1cccnc1)N[C@@H]1C2CC[C@H]1C[C@H](S(=O)(=O)c1cc(C(=O)Nc3cc(F)c(F)c(F)c3)ccc1Cl)C2 [Example 198] | < 100 | 
CCCSc1cc(C(=O)Nc2cc(F)c(F)c(F)c2)ccc1Cl [Example 13] | > 400 | 
O=C(Nc1cc(F)c(F)c(F)c1)c1ccc(Cl)c(S(=O)(=O)[C@H]2CC3CCC(C2)[C@@]3(O)CO)c1 [Example 223] | < 100 | 
O=C(Nc1cc(F)c(F)c(F)c1)c1ccc(Cl)c(S(=O)(=O)C2CCOCC2)c1 [Example 69] | 100 to 400 | 
CC(C)(O)C(O)[C@]1(O)C2CCC1C[C@H](S(=O)(=O)c1cc(C(=O)Nc3cc(F)c(F)c(F)c3)ccc1Cl)C2 (stereo partly drawn) [Example 363] | < 100 | 
O=C1CC2CC[C@@H](C1)[C@H]2CS(=O)(=O)c1cc(C(=O)Nc2cc(F)c(F)c(F)c2)ccc1Cl [Example 180] | < 100 | 
O=C(Nc1cc(F)c(F)c(F)c1)c1ccc(Cl)c(S(=O)(=O)[C@H]2C3CC[C@H]2C[C@](O)(/C=N/OCc2ccc(-c4ccccc4)cc2)C3)c1 [Example 224] | 100 to 400 | 
CC(C)(C)OC(=O)NCC(=O)NC[C@]1(O)C2CCC1C[C@@H](S(=O)(=O)c1cc(C(=O)Nc3cc(F)c(F)c(F)c3)ccc1Cl)C2 [Example 348] | < 100 | 
CC(C)(C)OC(=O)N1CCC(S(=O)(=O)c2cc(C(=O)Nc3cc(F)c(F)c(F)c3)ccc2Cl)CC1 [Example 59] | < 100 | 
C#C[C@]1(O)CC2CC[C@@H](C1)[C@H]2S(=O)(=O)c1cc(C(=O)Nc2cc(F)c(F)c(F)c2)ccc1Cl [Example 162] | < 100 | 
O=C(Nc1cc(F)c(F)c(F)c1)c1ccc(Cl)c(S(=O)(=O)[C@H]2C[C@@H](O)C2)c1 [Example 34] | > 400 | 
CC(C)(C)OC(=O)N1C2CCC1CC(S(=O)(=O)c1cc(C(=O)Nc3cc(F)c(F)c(F)c3)ccc1Cl)C2 (stereo not drawn) [Example 255] | > 400 | 
NC(=O)OCC1=C[C@@H]2CCC(C1)C2S(=O)(=O)c1cc(C(=O)Nc2cc(F)c(F)c(F)c2)ccc1Cl (stereo partly drawn) [Example 262] | < 100 | 

Source: patent US10538532B2, “Hepatitis B antiviral agents” (ENANTA PHARMACEUTICALS, INC., priority 2016, dated 2020)
